Results as given in US20240390295A1, “METHODS FOR TREATING DEPRESSION” (JANSSEN PHARMACEUTICA NV, priority 2020, published 2024).

Legend:
[1] = test system: adult patients (aged 18-64 years) with TRD; assay: CADSS-defined dissociation (CADSS total score >4); format: in vivo, human; conditions: for mean individual CADSS scores at recurrence: across follow-up timeframes
Text: One of skill in the art would readily be able to measure a patient's adverse events from experience and one or more tools utilized to make such assessments. For example, the Clinician-Administered Dissociative States Scale (CADSS) is an technique utilized to measure present-state dissociative symptoms, and, thus, may be utilized to assess treatment-emergent dissociative symptoms. The CADSS consists of 23 subjective items, divided into 3 components: Depersonalization (Items 3 to 7, 20, and 23), derealization (Items 1, 2, 8 to 13, 16 to 19, and 21) and amnesia (Items 14, 15, and 22). Participant's responses are coded on a 5-point scale (0=not at all through to 4=extremely). Thus, higher CADSS values represent a worse dissociative state, whereas lower CADSS values are indicative of a mild dissociative state.
Vital signs, the Clinician-Administered Dissociative States Scale (CADSS), and the Modified Observer's Assessment of Alertness/Sedation (MOAA/S) were assessed at baseline and all treatment sessions (predose, and at 40 minutes, 1 hour [vital signs only unless spontaneously reported by the patient], and 1.5 hours postdose). Routine blood pressure (BP) readings were conducted at each treatment session, with elevations reported as AEs based on the clinician's judgement. The CADSS assessed treatment-emergent dissociative symptoms and consists of 23 questions, each coded on a 5-point scale (0=not at all, 1-mild, 2-moderate, 3=severe, 4-extreme), yielding a total score 0-92.11 A CADSS total score >4 indicated the presence of dissociative symptoms. The MOAA/S assessed treatment-emergent sedation: scores range from (=no response to painful stimulus to 5=readily responds to name spoken in normal tone. Any decrease in MOAA/s from pre-dose (score <5) indicated some degree of sedation. An abnormal elevation in BP was defined as systolic BP ≥180 mmHg and ≥20 mmHg higher than baseline and/or diastolic BP ≥105 mmHg and ≥15 mmHg greater than baseline.
This analysis included any treatment sessions in which patients received ESK (either open-label or blinded). The occurrence and severity of AEs were assessed within the following timeframes: Month 1 (Week 1 and Weeks 2-4), Month 2 (Weeks 5-8), Months 3-6 and Months 6-12. Severity of clinician-reported AEs were scored as 0 (no AE), 1 (mild), 2 (moderate), and 3 (severe). To examine AEs in individual patients over time, only patients who received at least one ESK dose in the following period were included in the analyses of each respective period. Thus, patient data were retained in (i) Week 1 if the patient received ≥1 ESK dose in Weeks 2-4, (ii) Weeks 2-4 if the patient received ≥1 ESK dose in Weeks 5-8, (iii) Weeks 5-8 if the patient received ≥1 ESK dose in Months 3-6, and (iv) Months 3-6 if the patient received ≥1 ESK dose in Months 6-12.

[2] = test system: adult patients (aged 18-64 years) with TRD; conditions: cited from earlier work

SMILES: CN[C@]1(c2ccccc2Cl)CCCCC1=O [esketamine, (S)-2-(2-chlorophenyl)-2-(methylamino)cyclohexanone]
- CADSS-defined dissociation ([1]; Months 3-6, AE once in Week 1): 42.7%
- CADSS-defined dissociation ([1]; Months 3-6, AE twice in Week 1): 61.3%
- CADSS-defined dissociation ([1]; Months 3-6, No AE in Week 1): 19.4%
- CADSS-defined dissociation ([1]; Months 3-6, overall rate for timeframe): 38.6%
- CADSS-defined dissociation ([1]; Months 6-12, AE once in Week 1): 26.8%
- CADSS-defined dissociation ([1]; Months 6-12, AE twice in Week 1): 38.7%
- CADSS-defined dissociation ([1]; Months 6-12, No AE in Week 1): 15.9%
- CADSS-defined dissociation ([1]; Months 6-12, overall rate for timeframe): 25.9%
- CADSS-defined dissociation ([1]; Week 1, overall rate for timeframe): 56.6%
- CADSS-defined dissociation ([1]; Weeks 2-4, AE once in Week 1): 59.1%
- CADSS-defined dissociation ([1]; Weeks 2-4, AE twice in Week 1): 88.8%
- CADSS-defined dissociation ([1]; Weeks 2-4, No AE in Week 1): 24.8%
- CADSS-defined dissociation ([1]; Weeks 2-4, overall rate for timeframe): 53.1%
- CADSS-defined dissociation ([1]; Weeks 5-8, AE once in Week 1): 32.5%
- CADSS-defined dissociation ([1]; Weeks 5-8, AE twice in Week 1): 64.6%
- CADSS-defined dissociation ([1]; Weeks 5-8, No AE in Week 1): 15.6%
- CADSS-defined dissociation ([1]; Weeks 5-8, overall rate for timeframe): 34.9%
- patients with maximum CADSS score >42 ([1]; human, in vivo, other: intranasal): < 3 patients
- measure-based dissociation not reported during Week 1, patients ([1]; human, in vivo, other: nasal spray (intranasal), 1 week): 43%
- mean individual CADSS scores at recurrence ([1]; maximum CADSS total score <=14): 1.2-1.4
- mean individual CADSS scores at recurrence ([1]; maximum CADSS total scores 15-24 and 24-42): 1.3-2.1
- incidence of dissociation, dizziness, nausea, sedation, vertigo ([2]; ESK plus OAD therapy): ≥ 5%
- incidence relative to placebo plus an OAD ([2]; five most common treatment-emergent events): ≥ 2 fold
